Laboratory results from the supplement of paper PMC10883282.

Legend:
Assay in all cases: relative viability vs DMSO control (72 h) (fraction); higher = more viable cells
[1] = system: G401
Procedure, shortened: (§1)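 Sarcoma cell lines were seeded in 384-well plates at densities chosen for 80–90% confluence, then 24 h later given 2.5 µl of serially diluted compound drawn from source plates spanning 10 mM to 0.0002 mM. They were held 72 h at 37 °C, 5% CO2, with 0.1% DMSO vehicle and a 5 µM positive control included. Relative viability was read with ATPLite as percent growth and averaged over up to triplicate wells. Rescaling placed full at 1 and none at 0.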

[2] = system: VA-ES-BJ
Procedure, shortened: as §1

[3] = system: SW872
Procedure, shortened: as §1

[4] = system: KHOS-240S
Procedure, shortened: as §1

[5] = system: SK-LMS-1
Procedure, shortened: as §1

[6] = system: SW982
Procedure, shortened: as §1

[7] = system: A204
Procedure, shortened: as §1

[8] = system: RD
Procedure, shortened: as §1

[9] = system: MES-SA
Procedure, shortened: as §1

[10] = system: SK-ES-1
Procedure, shortened: as §1

[11] = system: SW1353
Procedure, shortened: as §1

[12] = system: HS729
Procedure, shortened: as §1

CO[C@H]1C[C@@H]2CC[C@@H](C)[C@@](O)(O2)C(=O)C(=O)N2CCCC[C@H]2C(=O)O[C@H]([C@H](C)C[C@@H]2CC[C@@H](OC(=O)C(C)(CO)CO)[C@H](OC)C2)CC(=O)[C@H](C)/C=C(\C)[C@@H](O)[C@@H](OC)C(=O)[C@H](C)C[C@H](C)/C=C/C=C/C=C/1C [Temsirolimus]
Details	relative viability
[1], 0.00017 µM	0.945
[1], 0.00051 µM	0.917
[1], 0.00152 µM	0.869
[1], 0.00457 µM	0.82
[1], 0.01372 µM	0.766
[1], 0.04115 µM	0.706
[1], 0.1235 µM	0.665
[1], 0.3704 µM	0.637
[1], 1.111 µM	0.621
[1], 3.333 µM	0.586
[1], 10 µM	0.396
[2], 0.00017 µM	0.864
[2], 0.00051 µM	0.723
[2], 0.00152 µM	0.577
[2], 0.00457 µM	0.547
[2], 0.01372 µM	0.487
[2], 0.04115 µM	0.448
[2], 0.1235 µM	0.415
[2], 0.3704 µM	0.42
[2], 1.111 µM	0.419
[2], 3.333 µM	0.415
[2], 10 µM	0.377
[3], 0.00017 µM	0.85
[3], 0.00051 µM	0.805
[3], 0.00152 µM	0.759
[3], 0.00457 µM	0.682
[3], 0.01372 µM	0.643
[3], 0.04115 µM	0.594
[3], 0.1235 µM	0.569
[3], 0.3704 µM	0.553
[3], 1.111 µM	0.516
[3], 3.333 µM	0.518
[3], 10 µM	0.461
[4], 0.00017 µM	1.01
[4], 0.00051 µM	0.954
[4], 0.00152 µM	0.886
[4], 0.00457 µM	0.833
[4], 0.01372 µM	0.807
[4], 0.04115 µM	0.802
[4], 0.1235 µM	0.763
[4], 0.3704 µM	0.748
[4], 1.111 µM	0.662
[4], 3.333 µM	0.581
[4], 10 µM	0.222
[5], 0.00017 µM	0.916
[5], 0.00051 µM	0.699
[5], 0.00152 µM	0.6325
[5], 0.00457 µM	0.597
[5], 0.01372 µM	0.537
[5], 0.04115 µM	0.495
[5], 0.1235 µM	0.477
[5], 0.3704 µM	0.472
[5], 1.111 µM	0.464
[5], 3.333 µM	0.441
[5], 10 µM	0.0134
[6], 0.00017 µM	0.921
[6], 0.00051 µM	0.828
[6], 0.00152 µM	0.724
[6], 0.00457 µM	0.667
[6], 0.01372 µM	0.657
[6], 0.04115 µM	0.657
[6], 0.1235 µM	0.626
[6], 0.3704 µM	0.595
[6], 1.111 µM	0.562
[6], 3.333 µM	0.473
[6], 10 µM	0.385
[7], 0.00017 µM	0.925
[7], 0.00051 µM	0.762
[7], 0.00152 µM	0.622
[7], 0.00457 µM	0.551
[7], 0.01372 µM	0.534
[7], 0.04115 µM	0.504
[7], 0.1235 µM	0.476
[7], 0.3704 µM	0.453
[7], 1.111 µM	0.431
[7], 3.333 µM	0.392
[7], 10 µM	0.334
[8], 0.00017 µM	1.09
[8], 0.00051 µM	1.01
[8], 0.00152 µM	0.91
[8], 0.00457 µM	0.84
[8], 0.01372 µM	0.792
[8], 0.04115 µM	0.755
[8], 0.1235 µM	0.735
[8], 0.3704 µM	0.681
[8], 1.111 µM	0.667
[8], 3.333 µM	0.578
[8], 10 µM	0.441
[9], 0.00017 µM	0.814
[9], 0.00051 µM	0.651
[9], 0.00152 µM	0.497
[9], 0.00457 µM	0.423
[9], 0.01372 µM	0.382
[9], 0.04115 µM	0.3571
[9], 0.1235 µM	0.353
[9], 0.3704 µM	0.3494
[9], 1.111 µM	0.343
[9], 3.333 µM	0.314
[9], 10 µM	0.223
[10], 0.00017 µM	0.959
[10], 0.00051 µM	0.904
[10], 0.00152 µM	0.8013
[10], 0.00457 µM	0.707
[10], 0.01372 µM	0.64
[10], 0.04115 µM	0.579
[10], 0.1235 µM	0.52
[10], 0.3704 µM	0.538
[10], 1.111 µM	0.519
[10], 3.333 µM	0.432
[10], 10 µM	0.126
[11], 0.00017 µM	0.892
[11], 0.00051 µM	0.859
[11], 0.00152 µM	0.827
[11], 0.00457 µM	0.781
[11], 0.01372 µM	0.745
[11], 0.04115 µM	0.72
[11], 0.1235 µM	0.68
[11], 0.3704 µM	0.664
[11], 1.111 µM	0.63
[11], 3.333 µM	0.602
[11], 10 µM	0.149
[12], 0.00017 µM	0.909
[12], 0.00051 µM	0.926
[12], 0.00152 µM	0.907
[12], 0.00457 µM	0.931
[12], 0.01372 µM	0.903
[12], 0.04115 µM	0.854
[12], 0.1235 µM	0.811
[12], 0.3704 µM	0.758
[12], 1.111 µM	0.753
[12], 3.333 µM	0.739
[12], 10 µM	0.388
